According to the supplement of paper PMC10307832:

Tests used:
Experiment in all cases: relative viability (nuclei count vs DMSO), 5 days (fraction); higher = more cells survive
LCLC-103H = tested on: LCLC-103H
Method in brief: (§1)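 For relative viability, nuclei counts in treated wells were divided by those in vehicle wells. Lung cancer cell lines had been pin-tool dosed in 1536-well plates the day after seeding and cultured for 5 days, then fixed and stained in one step (final 0.05% Triton X-100, 1% formaldehyde, 1 ug/ml Hoechst) and imaged at 4×. Doses were one drug alone or a fixed anchor-drug dose plus five library-drug doses (not always all listed) in √10 steps, and values are duplicate-plate medians.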

NCI-H358 = tested on: NCI-H358
Method in brief: as §1

NCI-H2405 = tested on: NCI-H2405
Method in brief: as §1

NCI-H1944 = tested on: NCI-H1944
Method in brief: as §1

NCI-H2085 = tested on: NCI-H2085
Method in brief: as §1

NCI-H2342 = tested on: NCI-H2342
Method in brief: as §1

UMC-11 = tested on: UMC-11
Method in brief: as §1

HCC-366 = tested on: HCC-366
Method in brief: as §1

NCI-H1792 = tested on: NCI-H1792
Method in brief: as §1

NCI-H1975 = tested on: NCI-H1975
Method in brief: as §1

NCI-H661 = tested on: NCI-H661
Method in brief: as §1

COR-L23 = tested on: COR-L23
Method in brief: as §1

NCI-H1395 = tested on: NCI-H1395
Method in brief: as §1

EPLC-272H = tested on: EPLC-272H
Method in brief: as §1

COR-L 105 = tested on: COR-L 105
Method in brief: as §1

HCC-15 = tested on: HCC-15
Method in brief: as §1

NCI-H2023 = tested on: NCI-H2023
Method in brief: as §1

HARA = tested on: HARA
Method in brief: as §1

HCC-78 = tested on: HCC-78
Method in brief: as §1

SK-MES-1 = tested on: SK-MES-1
Method in brief: as §1

HCC-44 = tested on: HCC-44
Method in brief: as §1

HCC-827 = tested on: HCC-827
Method in brief: as §1

SK-LU-1 = tested on: SK-LU-1
Method in brief: as §1

NCI-H1437 = tested on: NCI-H1437
Method in brief: as §1

NCI-H727 = tested on: NCI-H727
Method in brief: as §1

Structure (SMILES): CCCCCCCCCCCC1=C(O)C(=O)C=C(O)C1=O [Embelin] + CC(=O)Nc1cccc(-n2c(=O)n(C3CC3)c(=O)c3c(Nc4ccc(I)cc4F)n(C)c(=O)c(C)c32)c1 [Trametinib] (partner 0.02 µM)
- relative viability (LCLC-103H; first compound 0.08 µM): 0.718
- relative viability (LCLC-103H; first compound 0.8 µM): 0.742
- relative viability (LCLC-103H; first compound 2.53 µM): 0.674
- relative viability (LCLC-103H; first compound 8 µM): 0.698
- relative viability (NCI-H358; first compound 0.08 µM): 0.137
- relative viability (NCI-H358; first compound 0.8 µM): 0.154
- relative viability (NCI-H358; first compound 2.53 µM): 0.127
- relative viability (NCI-H358; first compound 8 µM): 0.14
- relative viability (NCI-H2405; first compound 0.08 µM): 0.664
- relative viability (NCI-H2405; first compound 0.8 µM): 0.778
- relative viability (NCI-H2405; first compound 2.53 µM): 0.638
- relative viability (NCI-H2405; first compound 8 µM): 0.626
- relative viability (NCI-H1944; first compound 0.08 µM): 0.404
- relative viability (NCI-H1944; first compound 0.8 µM): 0.436
- relative viability (NCI-H1944; first compound 2.53 µM): 0.446
- relative viability (NCI-H1944; first compound 8 µM): 0.428
- relative viability (NCI-H2085; first compound 0.08 µM): 0.663
- relative viability (NCI-H2085; first compound 0.8 µM): 0.579
- relative viability (NCI-H2085; first compound 2.53 µM): 0.532
- relative viability (NCI-H2085; first compound 8 µM): 0.448
- relative viability (NCI-H2342; first compound 0.08 µM): 0.95
- relative viability (NCI-H2342; first compound 0.8 µM): 0.806
- relative viability (NCI-H2342; first compound 2.53 µM): 0.866
- relative viability (NCI-H2342; first compound 8 µM): 0.757
- relative viability (UMC-11; first compound 0.08 µM): 0.698
- relative viability (UMC-11; first compound 0.8 µM): 0.869
- relative viability (UMC-11; first compound 2.53 µM): 0.758
- relative viability (UMC-11; first compound 8 µM): 0.593
- relative viability (HCC-366; first compound 0.08 µM): 0.385
- relative viability (HCC-366; first compound 0.8 µM): 0.431
- relative viability (HCC-366; first compound 2.53 µM): 0.446
- relative viability (HCC-366; first compound 8 µM): 0.326
- relative viability (NCI-H1792; first compound 0.08 µM): 0.452
- relative viability (NCI-H1792; first compound 0.8 µM): 0.539
- relative viability (NCI-H1792; first compound 2.53 µM): 0.532
- relative viability (NCI-H1792; first compound 8 µM): 0.459
- relative viability (NCI-H1975; first compound 0.08 µM): 0.38
- relative viability (NCI-H1975; first compound 0.8 µM): 0.379
- relative viability (NCI-H1975; first compound 2.53 µM): 0.376
- relative viability (NCI-H1975; first compound 8 µM): 0.369
- relative viability (NCI-H661; first compound 0.08 µM): 0.604
- relative viability (NCI-H661; first compound 0.8 µM): 0.729
- relative viability (NCI-H661; first compound 2.53 µM): 0.657
- relative viability (NCI-H661; first compound 8 µM): 0.521
- relative viability (COR-L23; first compound 0.08 µM): 0.562
- relative viability (COR-L23; first compound 0.8 µM): 0.689
- relative viability (COR-L23; first compound 2.53 µM): 0.653
- relative viability (COR-L23; first compound 8 µM): 0.608
- relative viability (NCI-H1395; first compound 0.08 µM): 0.996
- relative viability (NCI-H1395; first compound 0.8 µM): 1.14
- relative viability (NCI-H1395; first compound 2.53 µM): 1.14
- relative viability (NCI-H1395; first compound 8 µM): 1.14
- relative viability (EPLC-272H; first compound 0.08 µM): 0.315
- relative viability (EPLC-272H; first compound 0.8 µM): 0.282
- relative viability (EPLC-272H; first compound 2.53 µM): 0.296
- relative viability (EPLC-272H; first compound 8 µM): 0.253
- relative viability (COR-L 105; first compound 0.08 µM): 0.462
- relative viability (COR-L 105; first compound 0.8 µM): 0.458
- relative viability (COR-L 105; first compound 2.53 µM): 0.464
- relative viability (COR-L 105; first compound 8 µM): 0.445
- relative viability (HCC-15; first compound 0.08 µM): 0.366
- relative viability (HCC-15; first compound 0.8 µM): 0.435
- relative viability (HCC-15; first compound 2.53 µM): 0.345
- relative viability (HCC-15; first compound 8 µM): 0.383
- relative viability (NCI-H2023; first compound 0.08 µM): 0.568
- relative viability (NCI-H2023; first compound 0.8 µM): 0.654
- relative viability (NCI-H2023; first compound 2.53 µM): 0.613
- relative viability (NCI-H2023; first compound 8 µM): 0.495
- relative viability (HARA; first compound 0.08 µM): 0.785
- relative viability (HARA; first compound 0.8 µM): 1.05
- relative viability (HARA; first compound 2.53 µM): 0.637
- relative viability (HARA; first compound 8 µM): 0.536
- relative viability (HCC-78; first compound 0.08 µM): 0.834
- relative viability (HCC-78; first compound 0.8 µM): 0.831
- relative viability (HCC-78; first compound 2.53 µM): 0.752
- relative viability (HCC-78; first compound 8 µM): 0.696
- relative viability (SK-MES-1; first compound 0.08 µM): 0.599
- relative viability (SK-MES-1; first compound 0.8 µM): 0.588
- relative viability (SK-MES-1; first compound 2.53 µM): 0.591
- relative viability (SK-MES-1; first compound 8 µM): 0.518
- relative viability (HCC-44; first compound 0.08 µM): 1.04
- relative viability (HCC-44; first compound 0.8 µM): 1.08
- relative viability (HCC-44; first compound 2.53 µM): 1.1
- relative viability (HCC-44; first compound 8 µM): 1.08
- relative viability (HCC-827; first compound 0.08 µM): 0.535
- relative viability (HCC-827; first compound 0.8 µM): 0.588
- relative viability (HCC-827; first compound 2.53 µM): 0.506
- relative viability (HCC-827; first compound 8 µM): 0.487
- relative viability (SK-LU-1; first compound 0.08 µM): 0.505
- relative viability (SK-LU-1; first compound 0.8 µM): 0.542
- relative viability (SK-LU-1; first compound 2.53 µM): 0.691
- relative viability (SK-LU-1; first compound 8 µM): 0.39
- relative viability (NCI-H1437; first compound 0.08 µM): 0.531
- relative viability (NCI-H1437; first compound 0.8 µM): 0.607
- relative viability (NCI-H1437; first compound 2.53 µM): 0.648
- relative viability (NCI-H1437; first compound 8 µM): 0.505
- relative viability (NCI-H727; first compound 0.08 µM): 0.4
- relative viability (NCI-H727; first compound 0.8 µM): 0.394
- relative viability (NCI-H727; first compound 2.53 µM): 0.39
- relative viability (NCI-H727; first compound 8 µM): 0.423
